Assay results taken from ChEMBL document CHEMBL4052790, “Identification of a Novel TRPM8 Agonist from Nutmeg: A Promising Cooling Compound” (ACS Med Chem Lett, 2017).
pEC50: −log10 of the molar value. Active and inactive are the calls of the source. The calls are words filed in the database; no cut-off is given here.

Columns and labels:
[1] = target: T1, Transient receptor potential cation channel subfamily M member 8 (Homo sapiens, UniProt Q7Z2W7); assay: Agonist activity at full length recombinant human TRPM8 expressed in HEK293 cells assessed as increase in intracellular Ca2+ level pre-incubated for 5 mins by Fluo4-AM dye-based fluorescence assay; format: cell-based
Target sequence in this assay (Q7Z2W7 whole entry): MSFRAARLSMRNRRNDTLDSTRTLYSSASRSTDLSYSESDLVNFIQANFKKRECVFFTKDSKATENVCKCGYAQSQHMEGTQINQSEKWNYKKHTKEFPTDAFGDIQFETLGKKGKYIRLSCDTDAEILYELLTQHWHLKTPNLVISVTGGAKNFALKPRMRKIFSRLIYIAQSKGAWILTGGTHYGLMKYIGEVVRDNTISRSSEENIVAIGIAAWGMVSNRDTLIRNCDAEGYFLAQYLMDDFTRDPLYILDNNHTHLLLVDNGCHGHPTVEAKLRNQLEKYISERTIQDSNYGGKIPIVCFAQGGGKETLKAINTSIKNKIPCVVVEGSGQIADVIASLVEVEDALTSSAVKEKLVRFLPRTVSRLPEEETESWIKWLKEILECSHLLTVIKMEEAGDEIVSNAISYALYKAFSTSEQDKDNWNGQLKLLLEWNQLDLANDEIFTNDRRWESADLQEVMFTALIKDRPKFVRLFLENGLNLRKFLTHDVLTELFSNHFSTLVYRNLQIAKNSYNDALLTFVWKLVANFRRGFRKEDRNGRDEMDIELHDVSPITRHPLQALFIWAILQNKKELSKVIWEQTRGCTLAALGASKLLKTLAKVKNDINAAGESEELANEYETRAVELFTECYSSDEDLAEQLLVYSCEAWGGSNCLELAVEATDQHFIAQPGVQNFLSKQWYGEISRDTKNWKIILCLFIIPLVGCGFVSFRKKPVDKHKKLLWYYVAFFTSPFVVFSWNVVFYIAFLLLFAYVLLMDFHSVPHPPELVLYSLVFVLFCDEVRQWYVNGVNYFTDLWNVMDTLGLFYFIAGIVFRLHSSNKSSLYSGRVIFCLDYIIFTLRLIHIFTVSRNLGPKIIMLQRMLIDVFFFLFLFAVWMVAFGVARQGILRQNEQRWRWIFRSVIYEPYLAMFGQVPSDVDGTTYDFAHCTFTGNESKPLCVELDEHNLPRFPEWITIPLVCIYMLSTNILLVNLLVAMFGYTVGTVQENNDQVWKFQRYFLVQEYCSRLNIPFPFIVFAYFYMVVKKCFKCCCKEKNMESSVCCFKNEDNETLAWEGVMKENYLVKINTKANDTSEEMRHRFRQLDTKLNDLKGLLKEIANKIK

[2] = target: Transient receptor potential cation channel subfamily A member 1 (Homo sapiens, UniProt O75762); assay: Agonist activity at recombinant human TRPA1 expressed in HEK293 cells assessed as increase in intracellular Ca2+ level pre-incubated for 5 mins by Fluo4-AM dye-based fluorescence assay; format: cell-based
[3] = target: Transient receptor potential cation channel subfamily V member 1 (Homo sapiens) (UniProt Q8NER1); assay: Agonist activity at recombinant human TRPV1 expressed in HEK293 cells assessed as increase in intracellular Ca2+ level pre-incubated for 5 mins by Fluo4-AM dye-based fluorescence assay; format: cell-based
[4] = target: T2, Transient receptor potential cation channel subfamily V member 3 (Homo sapiens) (UniProt Q8NET8); assay: Agonist activity at recombinant human TRPV3 expressed in HEK293 cells assessed as increase in intracellular Ca2+ level pre-incubated for 5 mins by Fluo4-AM dye-based fluorescence assay; format: cell-based
T2 sequence (whole entry): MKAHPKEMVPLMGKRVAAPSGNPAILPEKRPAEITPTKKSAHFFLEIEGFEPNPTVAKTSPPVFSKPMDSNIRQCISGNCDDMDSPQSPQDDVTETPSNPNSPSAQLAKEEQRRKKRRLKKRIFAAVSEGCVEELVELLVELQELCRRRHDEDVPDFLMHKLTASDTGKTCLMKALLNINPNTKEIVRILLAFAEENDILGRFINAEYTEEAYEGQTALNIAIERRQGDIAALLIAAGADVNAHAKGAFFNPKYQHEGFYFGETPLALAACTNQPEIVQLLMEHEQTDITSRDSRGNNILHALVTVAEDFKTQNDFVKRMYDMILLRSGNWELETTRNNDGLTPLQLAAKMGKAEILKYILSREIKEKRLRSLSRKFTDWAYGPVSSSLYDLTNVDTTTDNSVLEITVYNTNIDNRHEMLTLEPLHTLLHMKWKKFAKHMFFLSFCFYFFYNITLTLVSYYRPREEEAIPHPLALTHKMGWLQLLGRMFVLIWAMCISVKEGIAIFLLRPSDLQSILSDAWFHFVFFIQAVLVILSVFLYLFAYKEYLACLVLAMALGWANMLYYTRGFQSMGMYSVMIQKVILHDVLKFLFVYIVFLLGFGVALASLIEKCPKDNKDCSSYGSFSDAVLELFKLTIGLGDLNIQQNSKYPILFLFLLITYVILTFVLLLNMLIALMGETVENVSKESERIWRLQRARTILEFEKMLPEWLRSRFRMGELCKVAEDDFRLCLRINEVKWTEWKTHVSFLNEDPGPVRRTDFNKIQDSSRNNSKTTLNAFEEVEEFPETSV

[5] = target: Transient receptor potential cation channel subfamily V member 4 (Homo sapiens) (UniProt Q9HBA0); assay: Agonist activity at recombinant human TRPV4 expressed in HEK293 cells assessed as increase in intracellular Ca2+ level pre-incubated for 5 mins by Fluo4-AM dye-based fluorescence assay; format: cell-based
[6] = test system: Transient receptor potential cation channel subfamily M member 8 (Homo sapiens), Q7Z2W7 [Y745H]; assay: Agonist activity at full length recombinant human TRPM8 Y745H mutant expressed in HEK293 cells at 0.3 to 3 uM by Fluo4-AM dye-based fluorescence assay; format: cell-based
[7] = target: T1, Transient receptor potential cation channel subfamily M member 8; assay: Agonist activity at full length recombinant human TRPM8 expressed in HEK293 cells assessed as additive potentiation of 1 and 3 uM l-menthol-stimulated intracellular Ca2+ level at 0.03 uM by Fluo4-AM dye-based fluorescence assay; format: cell-based
Target sequence in this assay (Q7Z2W7 whole entry, looked up): as the sequence (Q7Z2W7 whole entry) above

Homo sapiens [8] = species on record: Homo sapiens; assay: Induction of cooling effect in human at 0.02% measured after few mins after washing by simple mouth washing method; format: functional
Homo sapiens [9] = species on record: Homo sapiens; assay: Induction of cooling effect in human at 0.02% measured immediately after washing by simple mouth washing method; format: functional

Sequence of Transient receptor potential cation channel subfamily A member 1 (O75762 whole entry): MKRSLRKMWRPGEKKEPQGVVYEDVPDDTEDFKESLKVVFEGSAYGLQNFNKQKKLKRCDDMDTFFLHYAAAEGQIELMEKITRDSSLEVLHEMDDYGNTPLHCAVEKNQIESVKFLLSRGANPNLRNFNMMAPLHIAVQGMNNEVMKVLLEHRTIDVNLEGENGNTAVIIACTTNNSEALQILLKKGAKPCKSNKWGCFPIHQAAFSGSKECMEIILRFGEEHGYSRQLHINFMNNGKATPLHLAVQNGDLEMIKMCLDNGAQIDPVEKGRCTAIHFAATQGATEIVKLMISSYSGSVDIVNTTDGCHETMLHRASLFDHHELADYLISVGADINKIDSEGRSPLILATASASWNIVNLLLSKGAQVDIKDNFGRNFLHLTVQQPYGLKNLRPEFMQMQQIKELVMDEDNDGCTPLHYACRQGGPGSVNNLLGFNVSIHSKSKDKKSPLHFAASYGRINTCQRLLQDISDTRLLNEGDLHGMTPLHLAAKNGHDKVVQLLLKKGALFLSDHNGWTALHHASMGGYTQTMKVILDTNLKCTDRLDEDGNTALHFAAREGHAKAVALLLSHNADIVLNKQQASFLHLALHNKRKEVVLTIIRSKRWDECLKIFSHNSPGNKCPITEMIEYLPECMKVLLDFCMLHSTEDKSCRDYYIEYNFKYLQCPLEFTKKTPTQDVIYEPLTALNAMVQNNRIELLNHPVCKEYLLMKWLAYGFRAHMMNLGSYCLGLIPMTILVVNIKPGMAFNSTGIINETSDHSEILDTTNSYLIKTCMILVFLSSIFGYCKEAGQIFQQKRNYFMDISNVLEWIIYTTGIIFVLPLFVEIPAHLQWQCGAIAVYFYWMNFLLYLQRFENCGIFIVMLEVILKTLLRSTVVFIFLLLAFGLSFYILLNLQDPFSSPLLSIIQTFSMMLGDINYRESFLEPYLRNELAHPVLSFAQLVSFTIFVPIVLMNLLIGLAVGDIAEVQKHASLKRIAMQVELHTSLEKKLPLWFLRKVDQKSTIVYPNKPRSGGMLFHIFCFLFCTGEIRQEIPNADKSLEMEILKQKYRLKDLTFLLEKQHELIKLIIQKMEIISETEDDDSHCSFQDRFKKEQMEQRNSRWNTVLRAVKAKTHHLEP
Sequence of Transient receptor potential cation channel subfamily V member 4 (Homo sapiens) (Q9HBA0 whole entry): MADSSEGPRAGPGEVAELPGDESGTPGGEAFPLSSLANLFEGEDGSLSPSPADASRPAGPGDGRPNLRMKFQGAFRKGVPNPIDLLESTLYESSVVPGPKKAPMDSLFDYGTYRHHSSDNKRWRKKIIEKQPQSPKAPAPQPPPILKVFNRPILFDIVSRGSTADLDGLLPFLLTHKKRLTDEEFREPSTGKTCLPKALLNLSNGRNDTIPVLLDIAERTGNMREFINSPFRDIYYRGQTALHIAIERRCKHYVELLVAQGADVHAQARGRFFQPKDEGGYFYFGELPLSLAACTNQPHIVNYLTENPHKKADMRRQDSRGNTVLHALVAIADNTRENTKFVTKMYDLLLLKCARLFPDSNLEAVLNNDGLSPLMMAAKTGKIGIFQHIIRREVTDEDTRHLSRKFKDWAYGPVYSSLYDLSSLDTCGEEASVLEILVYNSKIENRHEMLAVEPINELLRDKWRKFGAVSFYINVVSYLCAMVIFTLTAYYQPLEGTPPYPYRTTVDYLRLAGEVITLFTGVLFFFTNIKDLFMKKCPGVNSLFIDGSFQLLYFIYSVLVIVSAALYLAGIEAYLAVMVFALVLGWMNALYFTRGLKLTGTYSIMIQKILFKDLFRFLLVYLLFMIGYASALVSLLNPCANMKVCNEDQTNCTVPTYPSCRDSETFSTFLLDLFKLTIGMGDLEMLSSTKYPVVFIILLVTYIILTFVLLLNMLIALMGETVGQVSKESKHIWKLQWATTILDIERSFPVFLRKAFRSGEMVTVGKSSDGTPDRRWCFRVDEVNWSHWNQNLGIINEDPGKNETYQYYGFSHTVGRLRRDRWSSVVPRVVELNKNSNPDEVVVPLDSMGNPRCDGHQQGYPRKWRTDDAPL
Sequence of Transient receptor potential cation channel subfamily V member 1 (Homo sapiens) (Q8NER1 whole entry): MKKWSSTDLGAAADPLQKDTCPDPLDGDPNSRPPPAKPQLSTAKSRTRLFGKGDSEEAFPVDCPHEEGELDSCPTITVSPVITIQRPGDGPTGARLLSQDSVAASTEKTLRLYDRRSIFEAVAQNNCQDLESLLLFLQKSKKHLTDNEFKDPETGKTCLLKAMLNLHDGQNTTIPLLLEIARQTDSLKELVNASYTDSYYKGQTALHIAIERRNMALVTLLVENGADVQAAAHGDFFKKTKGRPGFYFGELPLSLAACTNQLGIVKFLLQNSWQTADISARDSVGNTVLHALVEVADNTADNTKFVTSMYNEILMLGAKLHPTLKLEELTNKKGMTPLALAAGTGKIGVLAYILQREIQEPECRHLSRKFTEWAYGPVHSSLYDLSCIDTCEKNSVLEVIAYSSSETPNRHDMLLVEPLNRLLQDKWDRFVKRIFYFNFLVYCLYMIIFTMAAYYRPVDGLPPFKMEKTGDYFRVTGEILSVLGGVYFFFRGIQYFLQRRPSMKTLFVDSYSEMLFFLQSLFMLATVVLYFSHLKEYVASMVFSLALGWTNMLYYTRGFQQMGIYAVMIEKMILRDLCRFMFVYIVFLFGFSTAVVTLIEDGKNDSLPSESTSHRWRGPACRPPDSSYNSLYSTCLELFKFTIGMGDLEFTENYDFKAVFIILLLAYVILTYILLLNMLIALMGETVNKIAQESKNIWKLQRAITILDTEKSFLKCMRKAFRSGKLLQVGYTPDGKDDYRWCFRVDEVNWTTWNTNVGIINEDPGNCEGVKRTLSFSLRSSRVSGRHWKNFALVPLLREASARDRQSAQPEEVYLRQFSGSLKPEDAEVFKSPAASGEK
Sequence of Transient receptor potential cation channel subfamily M member 8 (Homo sapiens), Q7Z2W7 [Y745H] (Q7Z2W7 whole entry Y745H): as the sequence (Q7Z2W7 whole entry) above, with Y745H counted along it

SMILES | pEC50 [1] | also measured
C=CCc1cc(OC)c(O[C@H](C)[C@@H](OC(C)=O)c2ccc(OC)c(OC)c2)c(OC)c1 | < 5.00 | –
C=CCc1cc(OC)c(OC(C)C(OCCOCCCC)c2ccc(O)c(OC)c2)c(OC)c1 (configuration not stated) | 6.82 | –
C=CCc1cc(OC)c(OC(C)C(O[C@H]2C[C@@H](C)CC[C@@H]2C(C)C)c2ccc(O)c(OC)c2)c(OC)c1 (some centres not stated) | 7.96 | –
CC(C)[C@@H]1CC[C@@H](C)C[C@H]1O [LEVOMENTHOL] | – | pEC50 [2]: 4.02; Activity (Homo sapiens [9]): Active
C=CCc1cc(OC)c(OC(C)C(OCCCCCCCCCC)c2ccc(O)c(OC)c2)c(OC)c1 (configuration not stated) | 7.18 | –
C=CCc1cc(OC)c(OC(C)C(OC2CCCCC2)c2ccc(O)c(OC)c2)c(OC)c1 (configuration not stated) | 7.27 | –
C=CCc1cc(OC)c(O[C@H](C)[C@@H](O)c2ccc(OC)c(OC)c2)c(OC)c1 | < 5.00 | –
C=CCc1cc(OC)c(OC(C)C(OCCCCCCCC)c2ccc(O)c(OC)c2)c(OC)c1 (configuration not stated) | 7.07 | –
C=CCc1cc(OC)c(OC(C)C(O[C@@H]2C[C@H](C)CC[C@H]2C(C)C)c2ccc(O)c(OC)c2)c(OC)c1 (some centres not stated) | 7.55 | –

More lines, main results first:

pEC50 [1] | SMILES | also measured
7.09 | C=CCc1cc(OC)c(OC(C)C(OC(C)C)c2ccc(O)c(OC)c2)c(OC)c1 (configuration not stated) | –
5.46 | C=CCc1cc(OC)c(OC(C)C(OC)c2ccc(O)c(OC)c2)c(OC)c1 (configuration not stated) | –
6.23 | C=CCc1cc(OC)c(O[C@H](C)[C@H](OCC)c2ccc(O)c(OC)c2)c(OC)c1 | –
6.48 | C=CCc1cc(OC)c(OC(C)C(OCC)c2ccc(O)c(OC)c2)c(OC)c1 (mixture of isomers) | pEC50 [2]: 4.72; Activity [3]: inactive; Activity [4]: inactive; Activity [5]: inactive; Activity [6]: Active; Activity [7]: Active; Activity (Homo sapiens [8]): Active
< 5.00 | C=CCc1cc(OC)c(OC(C)C(O)c2ccc(O)c(OC)c2)c(OC)c1 (racemic) | –
6.86 | C=CCc1cc(OC)c(OC(C)C(OCC(C)C)c2ccc(O)c(OC)c2)c(OC)c1 (configuration not stated) | –
5.94 | C=CCc1cc(OC)c(O[C@H](C)[C@@H](OCC)c2ccc(O)c(OC)c2)c(OC)c1 | –
6.48 | C=CCc1cc(OC)c(OC(C)C(OCCCCCC)c2ccc(O)c(OC)c2)c(OC)c1 (configuration not stated) | –
< 5.00 | C=CCc1cc(OC)c(O[C@H](C)[C@@H](OC(C)=O)c2ccc(O)c(OC)c2)c(OC)c1 | –
5.95 | C=CCc1cc(OC)c(O[C@@H](C)[C@H](OCC)c2ccc(O)c(OC)c2)c(OC)c1 | –
